Laboratory results as given in patent publication US12077503B2, “Substituted cyclic amides and their use as herbicides” (FMC CORPORATION, priority 2015, dated 2024).
Read-outs that look alike come from different tables or passages of the source.

Tests used:
Format in all cases: in vivo
Kochia (Kochia scoparia) [1] = experiment: Test A preemergence; conditions: Bassia scoparia, pre-emergence, 240 h, preemergence, 0 to 100 scale where 0 is no effect and 100 is complete control, read-out: Kochia plant response rating; for pest or weed control at 125 g/ha: 125 g ai/ha, approx. 10 d; for pest or weed control at 500 g/ha: 500 g ai/ha
In short: (§1)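 Preemergence soil spray on seeded pots or post-emergence spray on 1–2 leaf plants, in loam–sand blend. Greenhouse ~10 d. Visual rating 0–100 against untreated plants.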

[2] = system: barnyardgrass (Echinochloa crus-galli); experiment: Test A preemergence; conditions: Echinochloa crus-galli, pre-emergence, 240 h, preemergence, 0 to 100 scale where 0 is no effect and 100 is complete control, read-out: Barnyardgrass plant response rating; for pest or weed control at 125 g/ha: 125 g ai/ha, approx. 10 d; for pest or weed control at 500 g/ha: 500 g ai/ha
In short: as §1

[3] = system: giant foxtail (Setaria faberii); experiment: Test A preemergence; conditions: Setaria faberi, pre-emergence, 240 h, preemergence, 0 to 100 scale where 0 is no effect and 100 is complete control, read-out: Foxtail, Giant plant response rating; for pest or weed control at 125 g/ha: 125 g ai/ha, approx. 10 d; for pest or weed control at 500 g/ha: 500 g ai/ha
In short: as §1

[4] = system: pigweed (Amaranthus retroflexus); experiment: Test A preemergence; conditions: Amaranthus retroflexus, pre-emergence, 240 h, preemergence, 0 to 100 scale where 0 is no effect and 100 is complete control, read-out: Pigweed plant response rating; for pest or weed control at 125 g/ha: 125 g ai/ha, approx. 10 d; for pest or weed control at 500 g/ha: 500 g ai/ha
[5] = system: ragweed (common ragweed, Ambrosia elatior); experiment: Test A preemergence; conditions: Ambrosia artemisiifolia, pre-emergence, 240 h, preemergence, 0 to 100 scale where 0 is no effect and 100 is complete control, read-out: Ragweed plant response rating; for pest or weed control at 125 g/ha: 125 g ai/ha, approx. 10 d; for pest or weed control at 500 g/ha: 500 g ai/ha
In short: as §1

[6] = system: ryegrass, Italian (Italian ryegrass, Lolium multiflorum); experiment: Test A preemergence; conditions: Lolium multiflorum, pre-emergence, 240 h, preemergence, 0 to 100 scale where 0 is no effect and 100 is complete control, read-out: Ryegrass, Italian plant response rating; for pest or weed control at 125 g/ha: 125 g ai/ha, approx. 10 d; for pest or weed control at 500 g/ha: 500 g ai/ha
In short: as §1

[7] = system: Galium (catchweed bedstraw, Galium aparine); experiment: Test A postemergence; conditions: Galium, post-emergence, 240 h, postemergence; for pest or weed control at 125 g/ha: 125 g ai/ha; for pest or weed control at 500 g/ha: 500 g ai/ha, 0 to 100 scale, 0 is no effect, 100 is complete control
In short: as §1

Kochia (Kochia scoparia) [8] = experiment: Test A postemergence; conditions: Bassia scoparia, post-emergence, 240 h, postemergence; for pest or weed control at 125 g/ha: 125 g ai/ha; for pest or weed control at 500 g/ha: 500 g ai/ha, 0 to 100 scale, 0 is no effect, 100 is complete control
In short: as §1

[9] = system: barnyardgrass (Echinochloa crus-galli); experiment: Test A postemergence; conditions: Echinochloa crus-galli, post-emergence, 240 h, postemergence; for pest or weed control at 125 g/ha: 125 g ai/ha; for pest or weed control at 500 g/ha: 500 g ai/ha, 0 to 100 scale, 0 is no effect, 100 is complete control
In short: as §1

corn (Zea mays) = experiment: Test A postemergence; conditions: Zea mays, post-emergence, 240 h, postemergence; for plant injury at 125 g/ha: 125 g ai/ha; for plant injury at 500 g/ha: 500 g ai/ha, 0 to 100 scale, 0 is no effect, 100 is complete control
In short: as §1

[10] = system: pigweed (Amaranthus retroflexus); experiment: Test A postemergence; conditions: Amaranthus retroflexus, post-emergence, 240 h, postemergence; for pest or weed control at 125 g/ha: 125 g ai/ha; for pest or weed control at 500 g/ha: 500 g ai/ha, 0 to 100 scale, 0 is no effect, 100 is complete control
In short: as §1

[11] = system: barnyardgrass (Echinochloa crus-galli); experiment: Test B flooded paddy test; conditions: Echinochloa crus-galli, 250 g ai/ha, Flood; 0 to 100 scale where 0 is no effect and 100 is complete control; read-out: Barnyardgrass plant response rating
In short: (§2)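 Percent control, visually estimated after 13–15 d in the greenhouse on a 0–100 basis, compares treated pots with untreated ones; compound was put into paddy water 3 cm above the soil when plants had two leaves.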

[12] = system: ducksalad (Heteranthera limosa); experiment: Test B flooded paddy test; conditions: Heteranthera limosa, 250 g ai/ha, Flood; 0 to 100 scale where 0 is no effect and 100 is complete control; read-out: Ducksalad plant response rating
In short: as §2

rice (Oryra sativa) = experiment: Test B flooded paddy test; conditions: Oryza sativa, 250 g ai/ha, Flood; 0 to 100 scale where 0 is no effect and 100 is complete control; read-out: Rice plant response rating
In short: as §2

[13] = system: sedge, umbrella (small-flower umbrella sedge, Cyperus difformis); experiment: Test B flooded paddy test; conditions: Cyperus difformis, 250 g ai/ha, Flood; 0 to 100 scale where 0 is no effect and 100 is complete control; read-out: Sedge, Umbrella plant response rating
In short: as §2

[14] = read-out: Galium plant response rating
[15] = read-out: Kochia plant response rating
[16] = read-out: Barnyardgrass plant response rating
[17] = read-out: Corn plant response rating
[18] = read-out: Pigweed plant response rating
[19] = visual injury vs untreated controls after approx. 10 d, 0 = no effect, 100 = complete control, read-out: Galium plant response rating (0 to 100 scale)
[20] = visual injury vs untreated controls after approx. 10 d, 0 = no effect, 100 = complete control, read-out: Kochia plant response rating (0 to 100 scale)
[21] = visual injury vs untreated controls after approx. 10 d, 0 = no effect, 100 = complete control, read-out: Barnyardgrass plant response rating (0 to 100 scale)
[22] = visual injury vs untreated controls after approx. 10 d, 0 = no effect, 100 = complete control, read-out: Corn plant response rating (0 to 100 scale)
[23] = visual injury vs untreated controls after approx. 10 d, 0 = no effect, 100 = complete control, read-out: Pigweed plant response rating (0 to 100 scale)

Row | SMILES | pest or weed control at 125 g/ha (Kochia (Kochia scoparia) [1]) [%] | pest or weed control at 500 g/ha (Kochia (Kochia scoparia) [1]) [%] | pest or weed control at 125 g/ha [2] [%] | pest or weed control at 500 g/ha [2] [%] | pest or weed control at 125 g/ha [3] [%] | pest or weed control at 500 g/ha [3] [%] | pest or weed control at 125 g/ha [4] [%] | pest or weed control at 500 g/ha [4] [%] | pest or weed control at 125 g/ha [5] [%] | pest or weed control at 500 g/ha [5] [%] | pest or weed control at 125 g/ha [6] [%] | pest or weed control at 500 g/ha [6] [%] | pest or weed control at 500 g/ha [7, 14] [%] | pest or weed control at 500 g/ha (Kochia (Kochia scoparia) [8]; [15]) [%] | pest or weed control at 500 g/ha [9, 16] [%] | plant injury at 500 g/ha (corn (Zea mays); [17]) [%] | pest or weed control at 500 g/ha [10, 18] [%] | pest or weed control at 250 g/ha [11] [%] | pest or weed control at 250 g/ha [12] [%] | pest or weed control at 250 g/ha (rice (Oryra sativa)) [%] | also measured
1 | CCc1cc(CC)cc([C@H]2CNC(=O)[C@@H]2C(=O)Nc2ccccc2F)c1 [Compound 1138] | 0 | 80 | 90 | 90 | 90 | 90 | 0 | 0 | 0 | 0 | 30 | 50 | 50 | 0 | 90 | 80 | 0 | 60 | 75 | 0 | pest or weed control at 125 g/ha ([7]; visual injury on 0 to 100 scale (0 no effect, 100 complete control), approx. 10 d, read-out: Galium plant response rating): 20%; pest or weed control at 125 g/ha (Kochia (Kochia scoparia) [8]; visual injury on 0 to 100 scale (0 no effect, 100 complete control), approx. 10 d, read-out: Kochia plant response rating): 0%; pest or weed control at 125 g/ha ([9]; visual injury on 0 to 100 scale (0 no effect, 100 complete control), approx. 10 d, read-out: Barnyardgrass plant response rating): 90%; plant injury at 125 g/ha (corn (Zea mays); visual injury on 0 to 100 scale (0 no effect, 100 complete control), approx. 10 d, read-out: Corn plant response rating): 50%; pest or weed control at 125 g/ha ([10]; visual injury on 0 to 100 scale (0 no effect, 100 complete control), approx. 10 d, read-out: Pigweed plant response rating): 0%; pest or weed control at 250 g/ha [13]: 0%
2 | CCc1cc([C@H]2CN(C)C(=O)[C@@H]2C(=O)Nc2ccccc2F)cs1 [Compound 1156] | 70 | 80 | 90 | 90 | 90 | 100 | 0 | 20 | 100 | 100 | 20 | 30 | 50 | 20 | 90 | 60 | 0 | 40 | 100 | 20 | pest or weed control at 125 g/ha [7, 19]: 40%; pest or weed control at 125 g/ha (Kochia (Kochia scoparia) [8]; [20]): 0%; pest or weed control at 125 g/ha [9, 21]: 90%; plant injury at 125 g/ha (corn (Zea mays); [22]): 20%; pest or weed control at 125 g/ha [10, 23]: 0%; pest or weed control at 250 g/ha [13]: 0%
3 | O=C1NCC[C@H](c2cccc(Cl)c2)[C@H]1C(=O)Nc1ccccc1F [Compound 1159] | 0 | 30 | 60 | 90 | 70 | 90 | 0 | 0 | 0 | 0 | 0 | 0 | 20 | 0 | 90 | 20 | 20 | 0 | 70 | 0 | pest or weed control at 125 g/ha [7, 19]: 20%; pest or weed control at 125 g/ha (Kochia (Kochia scoparia) [8]; [20]): 0%; pest or weed control at 125 g/ha [9, 21]: 90%; plant injury at 125 g/ha (corn (Zea mays); [22]): 0%; pest or weed control at 125 g/ha [10, 23]: 0%; pest or weed control at 250 g/ha [13]: 0%
4 | CCc1ccc([C@H]2CNC(=O)[C@@H]2C(=O)Nc2cccc(F)c2C)cc1 [Compound 1177] | 30 | 30 | 70 | 100 | 70 | 100 | 0 | 20 | 0 | 30 | 30 | 70 | 50 | 0 | 90 | 40 | 0 | 70 | 95 | 20 | pest or weed control at 125 g/ha [7, 19]: 20%; pest or weed control at 125 g/ha (Kochia (Kochia scoparia) [8]; [20]): 0%; pest or weed control at 125 g/ha [9, 21]: 70%; plant injury at 125 g/ha (corn (Zea mays); [22]): 20%; pest or weed control at 125 g/ha [10, 23]: 0%; pest or weed control at 250 g/ha [13]: 0%
